Measurements from the supplement of paper PMC12076712.

What was measured:
Test in all cases: pIC50, kinobeads binding competition
[1] = target: UniProt P48730
Method in brief: (§1)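 Nine compound concentrations were tested, starting at 30 μM in 1:4 steps on live Jurkat cells (60 min, 37 °C, then lysis) or in 1:5 steps on Jurkat lysate or a 1:1:1:1 HEK293/K-562/HepG2/placenta lysate mix (60 min, 4 °C). Kinobeads-bound proteins were digested and quantified with TMT10 LC-MS/MS. pIC50 values are from logistic dose-response fits in the R drc package of fold changes relative to vehicle, from biological duplicates.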

[2] = target: UniProt Q9Y2K2
Method in brief: as §1

[3] = target: ACVR2B (UniProt Q13705)
Method in brief: as §1

[4] = target: T1, UniProt P51955
T1 sequence (whole entry): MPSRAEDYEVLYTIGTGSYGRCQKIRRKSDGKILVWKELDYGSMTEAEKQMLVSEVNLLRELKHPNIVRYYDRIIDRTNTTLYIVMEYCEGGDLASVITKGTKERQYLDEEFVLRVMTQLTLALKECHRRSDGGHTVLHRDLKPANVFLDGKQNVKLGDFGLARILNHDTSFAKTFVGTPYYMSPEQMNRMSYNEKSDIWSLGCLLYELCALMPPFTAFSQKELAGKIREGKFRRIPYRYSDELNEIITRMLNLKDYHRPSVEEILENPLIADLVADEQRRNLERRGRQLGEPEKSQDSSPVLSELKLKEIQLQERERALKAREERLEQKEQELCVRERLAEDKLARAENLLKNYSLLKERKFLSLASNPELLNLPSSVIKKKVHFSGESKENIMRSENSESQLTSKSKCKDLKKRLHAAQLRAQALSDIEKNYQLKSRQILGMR
Method in brief: as §1

[5] = target: T2, UniProt O43318
T2 sequence (whole entry): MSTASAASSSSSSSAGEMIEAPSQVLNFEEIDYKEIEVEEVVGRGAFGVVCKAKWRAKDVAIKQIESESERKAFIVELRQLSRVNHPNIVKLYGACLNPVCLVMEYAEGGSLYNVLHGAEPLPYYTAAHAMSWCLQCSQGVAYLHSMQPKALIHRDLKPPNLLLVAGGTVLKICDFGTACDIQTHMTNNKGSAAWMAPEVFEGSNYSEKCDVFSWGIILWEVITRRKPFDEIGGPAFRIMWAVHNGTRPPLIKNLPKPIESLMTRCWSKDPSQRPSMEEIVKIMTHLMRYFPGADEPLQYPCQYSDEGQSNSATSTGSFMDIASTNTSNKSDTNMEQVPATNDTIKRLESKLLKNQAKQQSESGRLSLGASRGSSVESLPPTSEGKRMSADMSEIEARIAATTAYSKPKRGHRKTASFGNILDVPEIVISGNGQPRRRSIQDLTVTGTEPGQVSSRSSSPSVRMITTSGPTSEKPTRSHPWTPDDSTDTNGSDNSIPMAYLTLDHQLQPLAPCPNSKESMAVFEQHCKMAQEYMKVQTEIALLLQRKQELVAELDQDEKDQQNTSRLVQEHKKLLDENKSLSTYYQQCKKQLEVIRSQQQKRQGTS
Method in brief: as §1

[6] = target: UniProt Q05397
Method in brief: as §1

[7] = target: EPHA4 (UniProt P54764); conditions: cell material: Lysate mix
Method in brief: as §1

[8] = target: T3, UniProt O14965
T3 sequence (whole entry): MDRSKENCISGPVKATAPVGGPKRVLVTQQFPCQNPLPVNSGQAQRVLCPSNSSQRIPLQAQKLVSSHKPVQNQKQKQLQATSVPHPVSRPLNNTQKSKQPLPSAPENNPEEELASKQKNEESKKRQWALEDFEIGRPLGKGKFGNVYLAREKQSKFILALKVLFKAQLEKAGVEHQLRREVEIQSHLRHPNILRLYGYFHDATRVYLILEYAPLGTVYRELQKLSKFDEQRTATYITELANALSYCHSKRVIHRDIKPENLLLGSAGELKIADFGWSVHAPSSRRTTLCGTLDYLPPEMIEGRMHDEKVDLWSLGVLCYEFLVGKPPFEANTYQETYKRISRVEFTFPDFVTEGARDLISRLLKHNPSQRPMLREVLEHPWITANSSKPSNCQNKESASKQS
Method in brief: as §1

[9] = target: MAP4K5 (UniProt Q9Y4K4)
Method in brief: as §1

[10] = target: PLK1 (UniProt P53350)
Method in brief: as §1

[11] = target: UniProt P78527
Method in brief: as §1

[12] = target: Fyn (UniProt P06241)
Method in brief: as §1

[13] = target: T4, TP53RK (UniProt Q96S44)
T4 sequence (whole entry): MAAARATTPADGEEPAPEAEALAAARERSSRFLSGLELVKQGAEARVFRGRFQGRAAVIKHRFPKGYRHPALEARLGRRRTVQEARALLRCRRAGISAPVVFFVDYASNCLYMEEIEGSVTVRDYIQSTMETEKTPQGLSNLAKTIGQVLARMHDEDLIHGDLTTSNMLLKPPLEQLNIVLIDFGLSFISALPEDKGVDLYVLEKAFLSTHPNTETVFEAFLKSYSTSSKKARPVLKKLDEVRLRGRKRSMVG
Method in brief: as §1

[14] = target: CDK2 (UniProt P24941)
Method in brief: as §1

[15] = target: UniProt P49841
Method in brief: as §1

[16] = target: EPHA7 (UniProt Q15375); conditions: cell material: Lysate mix
Method in brief: as §1

[17] = target: UniProt P51812
Method in brief: as §1

[18] = target: IGF1R (UniProt P08069)
Method in brief: as §1

Sequence of MAP4K5 (Q9Y4K4 whole entry, looked up): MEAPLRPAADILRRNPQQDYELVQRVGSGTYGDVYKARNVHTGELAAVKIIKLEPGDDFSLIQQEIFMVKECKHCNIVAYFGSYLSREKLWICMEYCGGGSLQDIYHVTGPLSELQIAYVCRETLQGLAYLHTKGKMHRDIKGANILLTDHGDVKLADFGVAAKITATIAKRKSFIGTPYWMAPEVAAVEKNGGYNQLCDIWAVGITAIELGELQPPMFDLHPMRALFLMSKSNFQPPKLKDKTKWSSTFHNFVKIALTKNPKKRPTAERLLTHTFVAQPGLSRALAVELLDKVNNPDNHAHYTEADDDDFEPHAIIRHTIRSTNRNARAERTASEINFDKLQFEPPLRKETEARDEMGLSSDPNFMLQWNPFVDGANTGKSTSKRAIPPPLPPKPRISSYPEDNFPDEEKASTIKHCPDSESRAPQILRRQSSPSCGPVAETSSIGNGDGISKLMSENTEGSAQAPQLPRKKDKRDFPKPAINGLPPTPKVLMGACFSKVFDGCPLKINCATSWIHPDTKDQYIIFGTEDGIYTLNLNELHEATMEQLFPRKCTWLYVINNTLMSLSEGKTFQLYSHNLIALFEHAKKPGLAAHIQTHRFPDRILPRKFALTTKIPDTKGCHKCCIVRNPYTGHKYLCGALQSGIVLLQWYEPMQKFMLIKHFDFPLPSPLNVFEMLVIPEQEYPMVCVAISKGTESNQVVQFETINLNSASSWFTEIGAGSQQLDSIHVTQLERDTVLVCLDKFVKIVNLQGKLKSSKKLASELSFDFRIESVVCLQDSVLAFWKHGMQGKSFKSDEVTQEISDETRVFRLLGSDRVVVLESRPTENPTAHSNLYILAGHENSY
Sequence of PLK1 (P53350 whole entry): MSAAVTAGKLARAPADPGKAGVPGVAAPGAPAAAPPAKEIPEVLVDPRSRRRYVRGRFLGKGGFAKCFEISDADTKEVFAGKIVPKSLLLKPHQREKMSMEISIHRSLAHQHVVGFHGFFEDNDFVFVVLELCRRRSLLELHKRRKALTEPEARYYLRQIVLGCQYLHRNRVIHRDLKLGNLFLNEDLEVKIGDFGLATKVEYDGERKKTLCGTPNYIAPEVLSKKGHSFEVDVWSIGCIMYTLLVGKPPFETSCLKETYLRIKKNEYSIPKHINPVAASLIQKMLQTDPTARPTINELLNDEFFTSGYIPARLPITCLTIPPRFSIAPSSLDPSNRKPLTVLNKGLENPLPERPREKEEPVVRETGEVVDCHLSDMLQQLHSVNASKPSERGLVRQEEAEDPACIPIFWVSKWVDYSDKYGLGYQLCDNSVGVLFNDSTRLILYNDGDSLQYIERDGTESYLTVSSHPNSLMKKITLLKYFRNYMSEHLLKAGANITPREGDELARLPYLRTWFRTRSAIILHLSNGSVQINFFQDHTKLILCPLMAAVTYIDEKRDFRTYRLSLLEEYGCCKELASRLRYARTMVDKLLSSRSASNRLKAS
Sequence of UniProt P48730 (P48730 whole entry, looked up): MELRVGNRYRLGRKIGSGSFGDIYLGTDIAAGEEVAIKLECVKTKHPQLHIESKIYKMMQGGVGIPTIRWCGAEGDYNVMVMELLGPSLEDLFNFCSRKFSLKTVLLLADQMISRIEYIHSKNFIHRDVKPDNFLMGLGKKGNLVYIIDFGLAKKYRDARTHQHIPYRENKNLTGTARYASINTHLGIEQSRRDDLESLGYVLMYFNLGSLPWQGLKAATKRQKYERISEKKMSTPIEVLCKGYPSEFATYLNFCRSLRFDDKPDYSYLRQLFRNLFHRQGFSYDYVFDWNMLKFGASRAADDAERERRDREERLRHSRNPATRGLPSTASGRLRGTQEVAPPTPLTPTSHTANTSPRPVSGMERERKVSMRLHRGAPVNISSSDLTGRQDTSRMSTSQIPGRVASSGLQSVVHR
Sequence of ACVR2B (Q13705 whole entry): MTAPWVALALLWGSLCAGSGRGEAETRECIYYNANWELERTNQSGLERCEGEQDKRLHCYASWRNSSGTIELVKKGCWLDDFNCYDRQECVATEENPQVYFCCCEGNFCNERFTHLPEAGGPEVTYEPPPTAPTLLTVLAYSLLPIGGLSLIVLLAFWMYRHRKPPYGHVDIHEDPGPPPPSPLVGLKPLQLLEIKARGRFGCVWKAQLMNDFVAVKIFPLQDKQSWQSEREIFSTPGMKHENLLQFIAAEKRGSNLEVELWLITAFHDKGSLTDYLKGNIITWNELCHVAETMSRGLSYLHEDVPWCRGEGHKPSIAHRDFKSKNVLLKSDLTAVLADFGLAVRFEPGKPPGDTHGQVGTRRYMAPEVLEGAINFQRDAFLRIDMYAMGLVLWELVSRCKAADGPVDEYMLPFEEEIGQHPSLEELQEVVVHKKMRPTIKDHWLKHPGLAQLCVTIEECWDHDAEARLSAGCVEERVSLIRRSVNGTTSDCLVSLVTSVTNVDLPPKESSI
Sequence of IGF1R (P08069 whole entry, looked up): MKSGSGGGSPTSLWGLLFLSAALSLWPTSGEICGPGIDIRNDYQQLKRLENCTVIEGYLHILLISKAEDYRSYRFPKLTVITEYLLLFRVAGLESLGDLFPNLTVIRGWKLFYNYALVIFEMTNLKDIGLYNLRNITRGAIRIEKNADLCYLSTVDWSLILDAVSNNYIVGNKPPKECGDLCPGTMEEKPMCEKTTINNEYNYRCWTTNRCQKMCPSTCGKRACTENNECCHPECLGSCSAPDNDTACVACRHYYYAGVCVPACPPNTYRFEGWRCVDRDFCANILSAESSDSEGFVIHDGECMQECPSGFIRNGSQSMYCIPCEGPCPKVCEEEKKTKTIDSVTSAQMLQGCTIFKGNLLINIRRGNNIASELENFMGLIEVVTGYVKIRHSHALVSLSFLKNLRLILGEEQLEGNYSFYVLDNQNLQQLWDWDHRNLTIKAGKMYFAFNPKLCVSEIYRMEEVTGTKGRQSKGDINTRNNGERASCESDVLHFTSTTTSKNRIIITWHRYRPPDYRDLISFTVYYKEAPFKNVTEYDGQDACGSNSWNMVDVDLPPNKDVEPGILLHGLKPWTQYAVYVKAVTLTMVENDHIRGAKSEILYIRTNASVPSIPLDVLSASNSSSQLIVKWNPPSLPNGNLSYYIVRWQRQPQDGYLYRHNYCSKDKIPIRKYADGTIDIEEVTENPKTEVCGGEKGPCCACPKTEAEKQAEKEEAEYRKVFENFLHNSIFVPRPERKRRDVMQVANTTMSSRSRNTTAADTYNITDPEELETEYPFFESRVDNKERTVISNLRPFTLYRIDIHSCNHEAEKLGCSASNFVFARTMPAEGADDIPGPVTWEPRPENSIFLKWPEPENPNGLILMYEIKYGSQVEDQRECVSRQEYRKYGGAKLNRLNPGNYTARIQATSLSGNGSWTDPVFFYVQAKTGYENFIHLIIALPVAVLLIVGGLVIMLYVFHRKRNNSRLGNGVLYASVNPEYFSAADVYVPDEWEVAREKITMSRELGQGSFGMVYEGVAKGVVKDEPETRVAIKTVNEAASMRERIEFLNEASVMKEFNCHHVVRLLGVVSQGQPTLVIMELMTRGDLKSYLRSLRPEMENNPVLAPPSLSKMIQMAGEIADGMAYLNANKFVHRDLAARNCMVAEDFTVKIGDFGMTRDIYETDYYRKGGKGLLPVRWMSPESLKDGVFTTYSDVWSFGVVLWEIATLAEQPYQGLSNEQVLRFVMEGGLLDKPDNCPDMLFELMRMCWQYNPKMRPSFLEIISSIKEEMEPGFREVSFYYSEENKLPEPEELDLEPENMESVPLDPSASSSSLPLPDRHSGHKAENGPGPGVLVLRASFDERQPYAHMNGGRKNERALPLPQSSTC
Sequence of Fyn (P06241 whole entry, looked up): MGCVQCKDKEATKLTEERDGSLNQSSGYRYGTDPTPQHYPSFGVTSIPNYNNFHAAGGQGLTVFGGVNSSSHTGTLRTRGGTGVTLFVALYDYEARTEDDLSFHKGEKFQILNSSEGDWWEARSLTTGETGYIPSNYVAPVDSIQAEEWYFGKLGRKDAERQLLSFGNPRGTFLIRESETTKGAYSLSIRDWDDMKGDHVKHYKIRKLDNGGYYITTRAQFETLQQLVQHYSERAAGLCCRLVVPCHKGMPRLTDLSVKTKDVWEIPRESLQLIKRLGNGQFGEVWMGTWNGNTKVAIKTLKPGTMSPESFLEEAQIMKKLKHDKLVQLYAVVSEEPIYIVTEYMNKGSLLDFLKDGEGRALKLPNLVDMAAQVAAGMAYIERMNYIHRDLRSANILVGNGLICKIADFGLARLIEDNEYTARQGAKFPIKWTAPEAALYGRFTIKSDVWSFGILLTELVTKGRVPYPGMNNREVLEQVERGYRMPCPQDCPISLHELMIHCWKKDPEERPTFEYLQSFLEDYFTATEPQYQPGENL
Sequence of UniProt P49841 (P49841 whole entry, looked up): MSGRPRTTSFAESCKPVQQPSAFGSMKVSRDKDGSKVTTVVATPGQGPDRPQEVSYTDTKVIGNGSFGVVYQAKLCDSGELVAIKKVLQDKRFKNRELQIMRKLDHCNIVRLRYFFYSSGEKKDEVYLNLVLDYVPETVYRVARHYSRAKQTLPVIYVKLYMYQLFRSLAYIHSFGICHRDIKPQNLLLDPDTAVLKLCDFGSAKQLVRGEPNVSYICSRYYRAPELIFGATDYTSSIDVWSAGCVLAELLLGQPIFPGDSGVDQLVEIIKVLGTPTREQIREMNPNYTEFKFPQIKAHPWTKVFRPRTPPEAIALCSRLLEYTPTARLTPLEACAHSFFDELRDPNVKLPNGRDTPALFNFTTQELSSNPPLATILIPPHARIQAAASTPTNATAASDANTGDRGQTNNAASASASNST

With `CCNC(=O)c1cc(Nc2cc(C)[nH]n2)nc(N2CCN(Cc3ccc(S(=O)(=O)F)cc3)CC2)n1` the pIC50 ([1]; cell material: Lysate mix) was less than 4.52, the pIC50 ([2]; cell material: Lysate mix) was less than 4.52 and the pIC50 ([3]; cell material: Lysate mix) was less than 4.52. It also gave a pIC50 ([4]; cell material: Lysate mix) of 4.67, a pIC50 ([5]; cell material: Lysate mix) of less than 4.52 and a pIC50 ([6]; cell material: Lysate mix) of less than 4.52. It also gave a pIC50 [7] of less than 4.52, a pIC50 ([8]; cell material: Lysate mix) of 7.67 and a pIC50 ([9]; cell material: Lysate mix) of 5.33. It also gave a pIC50 ([10]; cell material: Lysate mix) of less than 4.52, a pIC50 ([11]; cell material: Lysate mix) of less than 4.52 and a pIC50 ([12]; cell material: Lysate mix) of 6.74. It also gave a pIC50 ([13]; cell material: Lysate mix) of less than 4.52, a pIC50 ([14]; cell material: Lysate mix) of 6.47 and a pIC50 ([15]; cell material: Lysate mix) of less than 4.52. For the same compound, the pIC50 [16] was less than 4.52, the pIC50 ([17]; cell material: Lysate mix) was 4.87 and the pIC50 ([18]; cell material: Lysate mix) was less than 4.52.

`CCNC(=O)c1cc(Nc2cc(C3CC3)[nH]n2)nc(N2CCN(Cc3ccc(S(=O)(=O)F)cc3)CC2)n1` gave a pIC50 ([1]; cell material: Lysate mix) of less than 4.52, a pIC50 ([2]; cell material: Lysate mix) of less than 4.52 and a pIC50 ([3]; cell material: Lysate mix) of less than 4.52. The pIC50 ([4]; cell material: Lysate mix) was 5.69, the pIC50 ([5]; cell material: Lysate mix) was less than 4.52 and the pIC50 ([6]; cell material: Lysate mix) was less than 4.52. It also gave a pIC50 [7] of less than 4.52, a pIC50 ([8]; cell material: Lysate mix) of 6.86 and a pIC50 ([9]; cell material: Lysate mix) of 5.77. The pIC50 ([10]; cell material: Lysate mix) was less than 4.52, the pIC50 ([11]; cell material: Lysate mix) was less than 4.52 and the pIC50 ([12]; cell material: Lysate mix) was 5.81. It also gave a pIC50 ([13]; cell material: Lysate mix) of less than 4.52, a pIC50 ([14]; cell material: Lysate mix) of 6.29 and a pIC50 ([15]; cell material: Lysate mix) of less than 4.52. It also gave a pIC50 [16] of less than 4.52, a pIC50 ([17]; cell material: Lysate mix) of 5.28 and a pIC50 ([18]; cell material: Lysate mix) of less than 4.52.

In the case of `Cc1cc(Nc2cc(C(=O)NCCNC(=O)OC3CC/C=C/CCC3)nc(N3CCN(Cc4ccc(S(=O)(=O)F)cc4)CC3)n2)n[nH]1` (centres undefined), the pIC50 ([1]; cell material: Lysate mix) is reported as less than 4.52, the pIC50 ([2]; cell material: Lysate mix) is reported as less than 4.52 and the pIC50 ([3]; cell material: Lysate mix) is reported as less than 4.52. It also gave a pIC50 ([4]; cell material: Lysate mix) of less than 4.52, a pIC50 ([5]; cell material: Lysate mix) of less than 4.52 and a pIC50 ([6]; cell material: Lysate mix) of less than 4.52. It also gave a pIC50 [7] of less than 4.52, a pIC50 ([8]; cell material: Lysate mix) of 5.39 and a pIC50 ([9]; cell material: Lysate mix) of less than 4.52. For the same compound, the pIC50 ([10]; cell material: Lysate mix) was less than 4.52, the pIC50 ([11]; cell material: Lysate mix) was less than 4.52 and the pIC50 ([12]; cell material: Lysate mix) was 4.58. It also gave a pIC50 ([13]; cell material: Lysate mix) of less than 4.52, a pIC50 ([14]; cell material: Lysate mix) of 4.74 and a pIC50 ([15]; cell material: Lysate mix) of less than 4.52. The pIC50 [16] was less than 4.52, the pIC50 ([17]; cell material: Lysate mix) was less than 4.52 and the pIC50 ([18]; cell material: Lysate mix) was less than 4.52.

`C#CCNC(=O)c1cc(Nc2cc(C3CC3)[nH]n2)nc(N2CCN(Cc3ccc(S(=O)(=O)F)cc3)CC2)n1` gave a pIC50 ([1]; cell material: Jurkat lysate) of less than 4.52, a pIC50 ([1]; cell material: Lysate mix) of less than 4.52 and a pIC50 ([2]; cell material: Jurkat lysate) of less than 4.52. It also gave a pIC50 ([2]; cell material: Lysate mix) of less than 4.52, a pIC50 ([3]; cell material: Jurkat lysate) of less than 4.52 and a pIC50 ([3]; cell material: Lysate mix) of less than 4.52. For the same compound, the pIC50 ([4]; cell material: Jurkat cells) was 6.69, the pIC50 ([4]; cell material: Jurkat lysate) was 5.41 and the pIC50 ([4]; cell material: Lysate mix) was 5.87. The pIC50 ([5]; cell material: Jurkat cells) was 5.87, the pIC50 ([5]; cell material: Jurkat lysate) was less than 4.52 and the pIC50 ([5]; cell material: Lysate mix) was less than 4.52. The pIC50 ([6]; cell material: Jurkat cells) was less than 4.52, the pIC50 ([6]; cell material: Jurkat lysate) was less than 4.52 and the pIC50 ([6]; cell material: Lysate mix) was less than 4.52. For the same compound, the pIC50 [7] was less than 4.52, the pIC50 ([8]; cell material: Jurkat cells) was 7.04 and the pIC50 ([8]; cell material: Jurkat lysate) was 6.25. For the same compound, the pIC50 ([8]; cell material: Lysate mix) was 7.06, the pIC50 ([9]; cell material: Jurkat cells) was 6.45 and the pIC50 ([9]; cell material: Jurkat lysate) was 5.53. The pIC50 ([9]; cell material: Lysate mix) was 6.21, the pIC50 ([10]; cell material: Jurkat cells) was 5.83 and the pIC50 ([10]; cell material: Jurkat lysate) was less than 4.52. The pIC50 ([10]; cell material: Lysate mix) was less than 4.52, the pIC50 ([11]; cell material: Jurkat cells) was less than 4.52 and the pIC50 ([11]; cell material: Jurkat lysate) was less than 4.52. It also gave a pIC50 ([11]; cell material: Lysate mix) of less than 4.52, a pIC50 ([12]; cell material: Jurkat cells) of 5.9 and a pIC50 ([12]; cell material: Lysate mix) of 5.9. For the same compound, the pIC50 ([13]; cell material: Jurkat cells) was less than 4.52, the pIC50 ([13]; cell material: Jurkat lysate) was less than 4.52 and the pIC50 ([13]; cell material: Lysate mix) was less than 4.52. It also gave a pIC50 ([14]; cell material: Jurkat cells) of 6.8, a pIC50 ([14]; cell material: Jurkat lysate) of 6.16 and a pIC50 ([14]; cell material: Lysate mix) of 6.7. For the same compound, the pIC50 ([15]; cell material: Jurkat cells) was 5.26, the pIC50 ([15]; cell material: Jurkat lysate) was less than 4.52 and the pIC50 ([15]; cell material: Lysate mix) was less than 4.52. For the same compound, the pIC50 [16] was less than 4.52, the pIC50 ([17]; cell material: Jurkat cells) was 5.96 and the pIC50 ([17]; cell material: Jurkat lysate) was less than 4.52. For the same compound, the pIC50 ([17]; cell material: Lysate mix) was 5.44, the pIC50 ([18]; cell material: Jurkat lysate) was less than 4.52 and the pIC50 ([18]; cell material: Lysate mix) was less than 4.52.
